Data as given in patent US20060205949A1, “Crystalline forms of a biphenyl compound” (THERAVANCE, INC., priority 2005, published 2006).

Key:
[1] = target: T1, hM2 receptor (CHO-K1 cells) (Homo sapiens, UniProt P08172); assay: Blockade of agonist-mediated [35S]GTPγS binding; type: biochemical; details: CHO-K1 cells expressing the hM2 receptor; this or a similar assay; read-out: Ki value for blockade of oxotremorine-stimulated [35S]GTPγS binding
T1 construct: expressed in transfected cells; host or cells: CHO-K1 cells
T1 sequence (P08172 1-466): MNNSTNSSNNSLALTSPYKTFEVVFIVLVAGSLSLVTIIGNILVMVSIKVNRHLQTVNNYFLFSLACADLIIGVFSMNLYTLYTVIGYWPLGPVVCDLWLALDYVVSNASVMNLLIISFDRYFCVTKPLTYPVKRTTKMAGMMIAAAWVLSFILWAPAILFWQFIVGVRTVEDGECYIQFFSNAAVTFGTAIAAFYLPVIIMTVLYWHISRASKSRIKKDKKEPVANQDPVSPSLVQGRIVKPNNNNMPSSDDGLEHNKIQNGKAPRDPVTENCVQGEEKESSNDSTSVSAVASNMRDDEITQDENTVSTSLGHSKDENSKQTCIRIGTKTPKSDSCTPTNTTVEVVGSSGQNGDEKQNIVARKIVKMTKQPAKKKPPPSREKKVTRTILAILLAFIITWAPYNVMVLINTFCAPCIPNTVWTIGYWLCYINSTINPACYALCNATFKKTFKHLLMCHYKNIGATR
Method: In a second functional assay, the functional potency of test compounds can be determined by measuring the ability of the compounds to block oxotremorine-stimulated [^35S]GTPγS binding in CHO-K1 cells expressing the hM2 receptor.
At the time of use, frozen membranes were thawed and then diluted in assay buffer with a final target tissue concentration of 5-10 μg protein per well. The membranes were briefly homogenized using a Polytron PT-2100 tissue disrupter and then added to the assay plates. The EC90 value (effective concentration for 90% maximal response) for stimulation of [^35S]GTPγS binding by the agonist oxotremorine was determined in each experiment.
The assay plates were then incubated at 37° C. for 60 minutes. The assay plates were filtered over 1% BSA-pretreated GF/B filters using a PerkinElmer 96-well harvester. The plates were rinsed with ice-cold wash buffer for 3×3 seconds and then air or vacuum dried. Microscint-20 scintillation liquid (50 μL) was added to each well, and each plate was sealed and radioactivity counted on a topcounter (PerkinElmer). Data were analyzed by nonlinear regression analysis with the GraphPad Prism Software package (GraphPad Software, Inc., San Diego, Calif.) using the non-linear regression, one-site competition equation. […]

[2] = target: T2, M3 muscarinic receptor subtype (hM3) (Homo sapiens, UniProt P20309); assay: Radioligand binding assay ([3H]-NMS displacement); details: CHO cell membranes, tested in this or a similar assay
T2 construct: expressed in transfected cells
Method: CHO cell lines stably expressing cloned human hM1, hM2, hM3 and hM4 muscarinic receptor subtypes, respectively, were grown to near confluency in medium consisting of HAM's F-12 supplemented with 10% FBS and 250 μg/mL Geneticin. The cells were grown in a 5% CO2, 37° C. incubator and lifted with 2 mM EDTA in DPBS. Cells were collected by 5 minute centrifugation at 650×g, and cell pellets were either stored frozen at −80° C. or membranes were prepared immediately. For membrane preparation, cell pellets were resuspended in lysis buffer and homogenized with a Polytron PT-2100 tissue disrupter (Kinematica AG; 20 seconds×2 bursts). Crude membranes were centrifuged at 40,000×g for 15 minutes at 4° C. […] The protein concentration of the membrane suspension was determined by the method described in Lowry, O. et al., Journal of Biochemistry 193:265 (1951). […]
Radioligand binding assays were performed in 96-well microtiter plates in a total assay volume of 100 μL. […] Filter plates were rinsed three times with wash buffer (10 mM HEPES) to remove unbound radioactivity. […] The plates were then counted in a PerkinElmer Topcount liquid scintillation counter (PerkinElmer Inc., Wellesley, Mass.). Binding data were analyzed by nonlinear regression analysis with the GraphPad Prism Software package (GraphPad Software, Inc., San Diego, Calif.) using the one-site competition model. […]

T2 sequence (P20309 whole entry): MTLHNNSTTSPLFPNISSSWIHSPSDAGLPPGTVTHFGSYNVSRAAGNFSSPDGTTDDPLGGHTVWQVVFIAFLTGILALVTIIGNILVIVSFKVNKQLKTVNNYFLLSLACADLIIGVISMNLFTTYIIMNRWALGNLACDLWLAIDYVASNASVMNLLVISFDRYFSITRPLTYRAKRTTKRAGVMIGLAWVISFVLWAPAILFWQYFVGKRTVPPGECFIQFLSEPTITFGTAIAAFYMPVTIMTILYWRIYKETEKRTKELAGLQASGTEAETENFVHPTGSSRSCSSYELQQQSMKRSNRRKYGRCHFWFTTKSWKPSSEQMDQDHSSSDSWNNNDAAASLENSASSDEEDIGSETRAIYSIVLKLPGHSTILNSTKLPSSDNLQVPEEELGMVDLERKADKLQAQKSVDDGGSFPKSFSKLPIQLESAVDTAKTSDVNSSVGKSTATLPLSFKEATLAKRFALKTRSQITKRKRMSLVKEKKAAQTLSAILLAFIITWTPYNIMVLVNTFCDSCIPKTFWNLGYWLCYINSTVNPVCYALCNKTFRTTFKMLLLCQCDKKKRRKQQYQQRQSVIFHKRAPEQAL

Q: How did the Ki [1] turn out when `O=C(CCN1CCC(OC(=O)Nc2ccccc2-c2ccccc2)CC1)NCCCCCNCc1ccc(O)cc1` [compound of formula I, biphenyl-2-ylcarbamic acid 1-{2-[5-(4-hydroxybenzylamino)pentylcarbamoyl]ethyl}piperidin-4-yl ester] was run?
A: < 10 nM

Q: What about the Ki [2] of the same molecule?
A: < 5 nM
